{
  "source": "patent EP0240392A1",
  "about": "“Compounds of the cyclophosphazene type, process for their preparation and pharmaceutical preparation containing them” (CENTRE NATIONAL DE LA RECHERCHE SCIENTIFIQUE (CNRS), priority 1986, dated 1987)",
  "key": {"[1]": {"test_system": "RETICULO SARCOME M5076 MURIN", "experiment": "Antitumour activity on murine M5076 reticulum sarcoma implanted i.m. in mice", "type": "in vivo, souris C57Bl/6", "conditions": "for Poids corporel (g±S.E.) / Poids de la rate (mg±S.E.) / Poids de la tumeur (g±S.E.) / Poids du foie (g±S.E.): jour 23; for nombre de souris vivantes/total: Tableau 5", "excerpt": "(§1) Les tests d'activité antitumorale ont été conduits au sein du Screening and Pharmacology Group de l'E.O.R.T.C., implanté à l'Institut Mario Negri de Milan.\n(§2) Ces essais ont été conduits soit en mono-injection à différentes doses au jour J+1 suivant la greffe de la tumeur, soit en poly-injections chroniques Q1D, soit en protocoles Q4D."}, "MELANOME B16": {"test_system": "MELANOME B16", "experiment": "Antitumour activity on B16 melanoma implanted i.m. in mice", "type": "in vivo, souris C57B1/6", "conditions": "100 mg/kg i.p. j 1-9", "excerpt": "as §1, §2\nL'activité antitumorale est mesurée par le rapport T/C %, T (en jours) étant le durée moyenne de vie des souris traitées, C (en jours) étant la durée moyenne de vie des souris témoins.\nL'effet thérapeutique est considéré comme significatif quant T/C % est supérieur ou égal à 125."}, "[2]": {"conditions": "100 mg/kg i.p. x j 1-9, jour 21"}, "[3]": {"conditions": "150 mg/kg i.p. x j 1,5,9, jour 14"}, "[4]": {"conditions": "150 mg/kg i.p. x j 1,5,9, jour 21"}, "[5]": {"conditions": "150 mg/kg i.p. x j 1-9, jour 21"}, "[6]": {"conditions": "200 mg/kg i.p. x j 1,5,9, jour 14"}, "[7]": {"conditions": "200 mg/kg i.p. x j 1,5,9, jour 21"}, "[8]": {"conditions": "250 mg/kg i.p. x j 1,5,9, jour 14"}, "[9]": {"conditions": "250 mg/kg i.p. x j 1,5,9, jour 21"}, "[10]": {"conditions": "300 mg/kg i.p. x j 1,5,9, jour 21"}},
  "data": [
    {"smiles": "C(CCN1CCCNP12=NP(N1CC1)(N1CC1)=NP(N1CC1)(N1CC1)=N2)CN1CCCNP12=NP(N1CC1)(N1CC1)=NP(N1CC1)(N1CC1)=N2", "note": "(stereo not drawn) [SPM]", "values": [
      {"measurement": "Volume moyen de la tumeur (cm^3 ± S.E.)", "setting": "[1]; 50 mg/kg i.p. x j 1-9, jour 14", "value": "0,38±0,01 cm^3"},
      {"measurement": "nombre de souris avec tumeur/total", "setting": "[1]; 50 mg/kg i.p. x j 1-9, jour 14", "value": "4/10"},
      {"measurement": "Volume moyen de la tumeur (cm^3 ± S.E.)", "setting": "[1]; 50 mg/kg i.p. x j 1-9, jour 21", "value": "2,03±0,17 cm^3"},
      {"measurement": "nombre de souris avec tumeur/total", "setting": "[1]; 50 mg/kg i.p. x j 1-9, jour 21", "value": "9/9"},
      {"measurement": "Poids corporel (g±S.E.)", "setting": "[1]; 50 mg/kg i.p. x j 1-9", "value": "20,05±0,60 g"},
      {"measurement": "Poids de la rate (mg±S.E.)", "setting": "[1]; 50 mg/kg i.p. x j 1-9", "value": "206,8±12,0 mg"},
      {"measurement": "Poids de la tumeur (g±S.E.)", "setting": "[1]; 50 mg/kg i.p. x j 1-9", "value": "3,4033±0,26 g"},
      {"measurement": "Poids du foie (g±S.E.)", "setting": "[1]; 50 mg/kg i.p. x j 1-9", "value": "1,6089±0,10 g"},
      {"measurement": "nombre de souris avec tumeur/total", "setting": "[1]; 100 mg/kg i.p. x j 1-9, jour 14", "value": "- (0/10)"},
      {"measurement": "Volume moyen de la tumeur (cm^3 ± S.E.)", "setting": "[1]; [2]", "value": "0,92±0,03 cm^3"},
      {"measurement": "nombre de souris avec tumeur/total", "setting": "[1]; [2]", "value": "12/12"},
      {"measurement": "Poids corporel (g±S.E.)", "setting": "[1]; 100 mg/kg i.p. x j 1-9", "value": "20,22±0,37 g"},
      {"measurement": "Poids de la rate (mg±S.E.)", "setting": "[1]; 100 mg/kg i.p. x j 1-9", "value": "137,9±5,04 mg"},
      {"measurement": "Poids de la tumeur (g±S.E.)", "setting": "[1]; 100 mg/kg i.p. x j 1-9", "value": "2,1947±0,07 g"},
      {"measurement": "Poids du foie (g±S.E.)", "setting": "[1]; 100 mg/kg i.p. x j 1-9", "value": "1,1750±0,03 g"},
      {"measurement": "Volume moyen de la tumeur (cm^3 ± S.E.)", "setting": "[1]; [3]", "value": "0,41±0,04 cm^3"},
      {"measurement": "nombre de souris avec tumeur/total", "setting": "[1]; [3]", "value": "4/10"},
      {"measurement": "Volume moyen de la tumeur (cm^3 ± S.E.)", "setting": "[1]; [4]", "value": "2,23±0,16 cm^3"},
      {"measurement": "nombre de souris avec tumeur/total", "setting": "[1]; [4]", "value": "10/10"},
      {"measurement": "Poids corporel (g±S.E.)", "setting": "[1]; 150 mg/kg i.p. x j 1,5,9", "value": "21,55±0,29 g"},
      {"measurement": "Poids de la rate (mg±S.E.)", "setting": "[1]; 150 mg/kg i.p. x j 1,5,9", "value": "240,7±17,1 mg"},
      {"measurement": "Poids de la tumeur (g±S.E.)", "setting": "[1]; 150 mg/kg i.p. x j 1,5,9", "value": "3,5869±0,18 g"},
      {"measurement": "Poids du foie (g±S.E.)", "setting": "[1]; 150 mg/kg i.p. x j 1,5,9", "value": "1,7270±0,10 g"},
      {"measurement": "nombre de souris avec tumeur/total", "setting": "[1]; 150 mg/kg i.p. x j 1-9, jour 14", "value": "- (0/10)"},
      {"measurement": "Volume moyen de la tumeur (cm^3 ± S.E.)", "setting": "[1]; [5]", "value": "0,72±0 cm^3"},
      {"measurement": "nombre de souris avec tumeur/total", "setting": "[1]; [5]", "value": "1/10"},
      {"measurement": "Poids corporel (g±S.E.)", "setting": "[1]; 150 mg/kg i.p. x j 1-9", "value": "17,55±0,70 g"},
      {"measurement": "Poids de la rate (mg±S.E.)", "setting": "[1]; 150 mg/kg i.p. x j 1-9", "value": "103,0±6,02 mg"},
      {"measurement": "Poids de la tumeur (g±S.E.)", "setting": "[1]; 150 mg/kg i.p. x j 1-9", "value": "1,0795±0,11 g"},
      {"measurement": "Poids du foie (g±S.E.)", "setting": "[1]; 150 mg/kg i.p. x j 1-9", "value": "1,0190±0,03 g"},
      {"measurement": "Volume moyen de la tumeur (cm^3 ± S.E.)", "setting": "[1]; [6]", "value": "0,36±0,04 cm^3"},
      {"measurement": "nombre de souris avec tumeur/total", "setting": "[1]; [6]", "value": "2/10"},
      {"measurement": "Volume moyen de la tumeur (cm^3 ± S.E.)", "setting": "[1]; [7]", "value": "2,02±0,26 cm^3"},
      {"measurement": "nombre de souris avec tumeur/total", "setting": "[1]; [7]", "value": "10/10"},
      {"measurement": "Poids corporel (g±S.E.)", "setting": "[1]; 200 mg/kg i.p. x j 1,5,9", "value": "21,05±0,39 g"},
      {"measurement": "Poids de la rate (mg±S.E.)", "setting": "[1]; 200 mg/kg i.p. x j 1,5,9", "value": "208,6± 8,8 mg"},
      {"measurement": "Poids de la tumeur (g±S.E.)", "setting": "[1]; 200 mg/kg i.p. x j 1,5,9", "value": "3,2003±0,18 g"},
      {"measurement": "Poids du foie (g±S.E.)", "setting": "[1]; 200 mg/kg i.p. x j 1,5,9", "value": "1,4620±0,08 g"},
      {"measurement": "nombre de souris avec tumeur/total", "setting": "[1]; 200 mg/kg i.p. x j 1-9, jour 14", "value": "- (0/10)"},
      {"measurement": "nombre de souris avec tumeur/total", "setting": "[1]; 200 mg/kg i.p. x j 1-9, jour 21", "value": "- (0/10)"},
      {"measurement": "Poids corporel (g±S.E.)", "setting": "[1]; 200 mg/kg i.p. x j 1-9", "value": "17,20±0,48 g"},
      {"measurement": "Poids de la rate (mg±S.E.)", "setting": "[1]; 200 mg/kg i.p. x j 1-9", "value": "117,8±9,9 mg"},
      {"measurement": "Poids de la tumeur (g±S.E.)", "setting": "[1]; 200 mg/kg i.p. x j 1-9", "value": "0,3819±0,13 g"},
      {"measurement": "Poids du foie (g±S.E.)", "setting": "[1]; 200 mg/kg i.p. x j 1-9", "value": "1,1088±0,01 g"},
      {"measurement": "Volume moyen de la tumeur (cm^3 ± S.E.)", "setting": "[1]; [8]", "value": "0,32 cm^3"},
      {"measurement": "nombre de souris avec tumeur/total", "setting": "[1]; [8]", "value": "1/9"},
      {"measurement": "Volume moyen de la tumeur (cm^3 ± S.E.)", "setting": "[1]; [9]", "value": "1,02±0,08 cm^3"},
      {"measurement": "nombre de souris avec tumeur/total", "setting": "[1]; [9]", "value": "8/9"},
      {"measurement": "Poids corporel (g±S.E.)", "setting": "[1]; 250 mg/kg i.p. x j 1,5,9", "value": "20,16±0,47 g"},
      {"measurement": "Poids de la rate (mg±S.E.)", "setting": "[1]; 250 mg/kg i.p. x j 1,5,9", "value": "144,5± 7,3 mg"},
      {"measurement": "Poids de la tumeur (g±S.E.)", "setting": "[1]; 250 mg/kg i.p. x j 1,5,9", "value": "2,4530±0,18 g"},
      {"measurement": "Poids du foie (g±S.E.)", "setting": "[1]; 250 mg/kg i.p. x j 1,5,9", "value": "1,2015±0,04 g"},
      {"measurement": "nombre de souris avec tumeur/total", "setting": "[1]; 300 mg/kg i.p. x j 1,5,9, jour 14", "value": "- (0/10)"},
      {"measurement": "Volume moyen de la tumeur (cm^3 ± S.E.)", "setting": "[1]; [10]", "value": "0,94±0,09 cm^3"},
      {"measurement": "nombre de souris avec tumeur/total", "setting": "[1]; [10]", "value": "9/10"},
      {"measurement": "Poids corporel (g±S.E.)", "setting": "[1]; 300 mg/kg i.p. x j 1,5,9", "value": "20,20±0,53 g"},
      {"measurement": "Poids de la rate (mg±S.E.)", "setting": "[1]; 300 mg/kg i.p. x j 1,5,9", "value": "125,6±10,8 mg"},
      {"measurement": "Poids de la tumeur (g±S.E.)", "setting": "[1]; 300 mg/kg i.p. x j 1,5,9", "value": "2,2664±0,19 g"},
      {"measurement": "Poids du foie (g±S.E.)", "setting": "[1]; 300 mg/kg i.p. x j 1,5,9", "value": "1,2654±0,06 g"},
      {"measurement": "nombre de souris vivantes/total", "setting": "[1]; 250 mg/kg i.p. x j 1,5,9", "value": "250 \" ( 9/9 )"},
      {"measurement": "nombre de souris vivantes/total", "setting": "[1]; 300 mg/kg i.p. x j 1,5,9", "value": "300xj 1,5,9 (10/10)"},
      {"measurement": "T/C (%)", "setting": "MELANOME B16", "value": 103, "unit": "%"},
      {"measurement": "Volume moyen de la tumeur (cm^3 ± S.E.)", "setting": "MELANOME B16; jour 17", "value": "1,01±0,15 cm^3"}
    ]}
  ]
}
